Consider 29 compounds from patent publication US20230234942A1, “COMPOUNDS FOR TREATING HUNTINGTON'S DISEASE” (PTC Therapeutics, Inc., priority 2020, published 2023).

For orientation: IC50 means the concentration that gives 50% inhibition.

The test system of the first assay is Endogenous Huntingtin Protein. The assay is described as follows: Endogenous Huntingtin Protein Assay (ELISA-based MSD electrochemiluminescence). Type of assay: cell-based. Particulars: Table 2; MSD plates coated with MW1 (expanded polyglutamine) or MAB2166 capture antibody; "inactive" = result above the detection limit of the assay. The method, then:
Compounds of Formula (I) were tested using the Meso Scale Discovery (MSD) Assay provided in International Application No. PCT/US2016/066042, filed on Dec. 11, 2016 and claiming priority to U.S. Provisional Application 62/265,652 filed on Dec. 10, 2015, the entire contents of which are incorporated herein by reference.
The Endogenous Huntingtin Protein assay used in Biological Example 1 was developed using the ELISA-based MSD electrochemiluminescence assay platform.
Meso Scale Discovery (MSD) 96-well or 384-well plates were coated overnight at 4° C. with MW1 (expanded polyglutamine) or MAB2166 monoclonal antibody (for capture) at a concentration of 1 μg/mL in PBS (30 μL per well). Plates were then washed three times with 300 μL wash buffer (0.05% Tween-20 in PBS) and blocked (100 μL blocking buffer; 5% BSA in PBS) for 4-5 hours at room temperature with rotational shaking and then washed three times with wash buffer.
Samples (25 μL) were transferred to the antibody-coated MSD plate and incubated overnight at 4° C. After removal of the lysates, the plate was washed three times with wash buffer, and 25 μL of #56565 (Cell signaling; rabbit monoclonal) secondary antibody (diluted to 0.25 μg/mL in 0.05% Tween-20 in blocking buffer) was added to each well and incubated with shaking for 1 Hour at room temperature. Following incubation with the secondary antibody, the wells were rinsed with wash buffer after which 25 μL of goat anti-rabbit SULFO TAG secondary detection antibody (required aspect of the MSD system) (diluted to 0.25 μg/mL in 0.05% Tween-20 in blocking buffer) was added to each well and incubated with shaking for 1 hour at room temperature. After rinsing three times with wash buffer, 150 μL of read buffer T with surfactant (MSD) were added to each empty well, and the plate was imaged on a SI 6000 imager (MSD) according to manufacturers' instructions provided for 96- or 384-well plates.
For orientation: In an ELISA, binding on a coated surface is turned into a signal by an enzyme label.
`CCC1CN(c2ncc(-c3ccc(-c4cc(F)c5nc(C)cn5c4)cc3O)nn2)CCN1` (centres unmarked) [Cpd 68, 2-[3-(3-ethylpiperazin-1-yl)-1,2,4-triazin-6-yl]-5-(8-fluoro-2-methylimidazo[1,2-a]pyridin-6-yl)phenol] registered an IC50 of 2.2 nM.

For the compound `Cc1cnc2nc(-c3ccc(-c4cnc(N5C[C@@H](C)N[C@@H](C)C5)nn4)c(O)c3)sc2n1` [Cpd 119, 2-{3-[(3R,5S)-3,5-dimethylpiperazin-1-yl]-1,2,4-triazin-6-yl}-5-(6-methyl[1,3]thiazolo[4,5-b]pyrazin-2-yl)phenol], the “IC50 (nM)” value is “inactive”. In turn, `COc1cc(-c2ccc(-c3cnc(N4C[C@@H](C)N[C@@H](C(C)(C)C)C4)nn3)c(O)c2)ncn1` [Cpd 255, 2-{3-[(3S,5R)-3-tert-butyl-5-methylpiperazin-1-yl]-1,2,4-triazin-6-yl}-5-(6-methoxypyrimidin-4-yl)phenol] had an IC50 of 341 nM. The same measure, in the same setting: the figure for `CC[C@H]1CN(c2ncc(-c3ccc(-c4ncns4)cc3O)nn2)C[C@@H](C)N1` (single isomer, unassigned) [Cpd 267, 2-{3-[(3S,5R)-3-ethyl-5-methylpiperazin-1-yl]-1,2,4-triazin-6-yl}-5-(1,2,4-thiadiazol-5-yl)phenol or 2-{3-[(3R,5S)-3-ethyl-5-methylpiperazin-1-yl]-1,2,4-triazin-6-yl}-5-(1,2,4-thiadiazol-5-yl)phenol] is 145 nM. The same measure, in the same setting: with `Cc1cn2nc(-c3ccc(-c4cnc(N5C[C@@H](C)N(C)[C@@H](C)C5)nn4)c(O)c3)cc(C)c2n1` [Cpd 111, 5-(2,8-dimethylimidazo[1,2-b]pyridazin-6-yl)-2-{3-[(3R,5S)-3,4,5-trimethylpiperazin-1-yl]-1,2,4-triazin-6-yl}phenol] the figure was 27.5 nM; with `C[C@@H]1CN(c2ncc(-c3ccc(-c4cnc5nn(C)nc5c4)cc3O)nn2)C[C@H](C)N1` [Cpd 197, 2-{3-[(3R,5S)-3,5-dimethylpiperazin-1-yl]-1,2,4-triazin-6-yl}-5-(2-methyl-2H-[1,2,3]triazolo[4,5-b]pyridin-6-yl)phenol], 11.6 nM. Still for that read-out and setting: with `C[C@H]1CN(c2ncc(-c3ccc(-c4cn[nH]c4F)cc3O)nn2)C[C@@H](C2CC2)N1` [Cpd 215, 2-{3-[(3R,5S)-3-cyclopropyl-5-methylpiperazin-1-yl]-1,2,4-triazin-6-yl}-5-(5-fluoro-1H-pyrazol-4-yl)phenol] the figure was 114 nM; with `COc1cc(-c2ccc(-c3cnc(N4C[C@@H](C)N[C@@H](C5CC5)C4)nn3)c(O)c2)nc(OC)n1` [Cpd 219, 2-{3-[(3S,5R)-3-cyclopropyl-5-methylpiperazin-1-yl]-1,2,4-triazin-6-yl}-5-(2,6-dimethoxypyrimidin-4-yl)phenol], 13.7 nM; with `COc1cc(-c2ccc(-c3cnc(N4CCN[C@@H](C(C)C)C4)nn3)c(O)c2)nn2nc(C)nc12` [Cpd 70, 5-(8-methoxy-2-methyl[1,2,4]triazolo[1,5-b]pyridazin-6-yl)-2-{3-[(3S)-3-(propan-2-yl)piperazin-1-yl]-1,2,4-triazin-6-yl}phenol], 3.8 nM. With `CC(C)(C)[C@H]1CN(c2ncc(-c3cc(F)c(-c4cn[nH]c4)cc3O)nn2)CCN1` [Cpd 164, 2-{3-[(3S)-3-tert-butylpiperazin-1-yl]-1,2,4-triazin-6-yl}-4-fluoro-5-(1H-pyrazol-4-yl)phenol], the IC50 amounted to 4 nM. Consider `CC(C)[C@H]1CN(c2ncc(-c3ccc(-c4ccc5nccn5c4)cc3O)nn2)CCN1` [Cpd 114, 5-(imidazo[1,2-a]pyridin-6-yl)-2-{3-[(3S)-3-(propan-2-yl)piperazin-1-yl]-1,2,4-triazin-6-yl}phenol], for which the IC50 came to 54.4 nM. Consider `CC(C)[C@H]1CN(c2ncc(-c3ccc(-n4nccn4)cc3O)nn2)CCN1` [Cpd 154, 2-{3-[(3S)-3-(propan-2-yl)piperazin-1-yl]-1,2,4-triazin-6-yl}-5-(2H-1,2,3-triazol-2-yl)phenol], for which the IC50 is 18.7 nM.

In the case of `Cn1cc(-c2ccc(-c3cnc(N4CCN[C@@H](C5CC5)C4)nn3)c(O)c2)cn1` [Cpd 12, 2-{3-[(3S)-3-cyclopropylpiperazin-1-yl]-1,2,4-triazin-6-yl}-5-(1-methyl-1H-pyrazol-4-yl)phenol], the IC50 came out at 10.9 nM.

`CC(C)[C@H]1CN(c2ncc(-c3cc(F)c(-c4cn[nH]c4)cc3O)nn2)CCN1` [Cpd 158, 4-fluoro-2-{3-[(3S)-3-(propan-2-yl)piperazin-1-yl]-1,2,4-triazin-6-yl}-5-(1H-pyrazol-4-yl)phenol] gave an IC50 of 5.6 nM. The same measure, in the same setting: with `CC(C)(C)[C@H]1CN(c2ncc(-c3ccc(-c4cn5ncnc5cn4)cc3O)nn2)CCN1` [Cpd 129, 2-{3-[(3S)-3-tert-butylpiperazin-1-yl]-1,2,4-triazin-6-yl}-5-([1,2,4]triazolo[1,5-a]pyrazin-6-yl)phenol] the figure was 18.6 nM. Still for that read-out and setting: with `Oc1cc(-c2cn[nH]c2)ccc1-c1cnc(N2CCNC(c3ccccc3)C2)nn1` (centres unmarked) [Cpd 61, 2-[3-(3-phenylpiperazin-1-yl)-1,2,4-triazin-6-yl]-5-(1H-pyrazol-4-yl)phenol] the figure was 1440 nM. On the same count and under the same terms, with `Oc1cc(-c2cn[nH]c2)ccc1-c1cnc(N2CCN[C@@H](C3CC3)C2)nn1` [Cpd 137, 2-{3-[(3S)-3-cyclopropylpiperazin-1-yl]-1,2,4-triazin-6-yl}-5-(1H-pyrazol-4-yl)phenol] the figure was 7.5 nM. `CN1CCN(c2ncc(-c3ccc(-c4cn[nH]c4)cc3O)nn2)CC1C1CC1` (centres unmarked) [Cpd 27, 2-[3-(3-cyclopropyl-4-methylpiperazin-1-yl)-1,2,4-triazin-6-yl]-5-(1H-pyrazol-4-yl)phenol] returned an IC50 of 25.1 nM. On the same count and under the same terms, the figure for `CC(C)C1CN(c2ncc(-c3ccc(-c4cn[nH]c4)cc3O)nn2)CCN1C` (centres unmarked) [Cpd 34, 2-{3-[4-methyl-3-(propan-2-yl)piperazin-1-yl]-1,2,4-triazin-6-yl}-5-(1H-pyrazol-4-yl)phenol] is 42 nM; for `Oc1cc(-c2ccncc2)ccc1-c1cnc(N2CCN[C@@H](C3CC3)C2)nn1` [Cpd 177, 2-{3-[(3S)-3-cyclopropylpiperazin-1-yl]-1,2,4-triazin-6-yl}-5-(pyridin-4-yl)phenol] it is 29 nM; for `CC(C)[C@H]1CN(c2ncc(-c3ccc(-c4ncc(C#N)s4)cc3O)nn2)CCN1` [Cpd 272, 2-(3-hydroxy-4-{3-[(3S)-3-(propan-2-yl)piperazin-1-yl]-1,2,4-triazin-6-yl}phenyl)-1,3-thiazole-5-carbonitrile] it is 356 nM. Still for that read-out and setting: with `Cn1nc2ccc(-c3ccc(-c4cnc(N5CCN[C@@H](C6CC6)C5)nn4)c(O)c3)nc2n1` [Cpd 202, 2-{3-[(3S)-3-cyclopropylpiperazin-1-yl]-1,2,4-triazin-6-yl}-5-(2-methyl-2H-[1,2,3]triazolo[4,5-b]pyridin-5-yl)phenol] the figure was 3.7 nM. The same measure, in the same setting: with `Cc1nc2ncc(-c3ccc(-c4cnc(N5C[C@@H](C)N[C@@H](C)C5)nn4)c(O)c3)cn2n1` [Cpd 112, 2-{3-[(3R,5S)-3,5-dimethylpiperazin-1-yl]-1,2,4-triazin-6-yl}-5-(2-methyl[1,2,4]triazolo[1,5-a]pyrimidin-6-yl)phenol] the figure was 34 nM. As for `Oc1cc(-c2cn[nH]c2)ccc1-c1cnc(N2CCNC(C3CCC3)C2)nn1` (centres unmarked) [Cpd 30, 2-[3-(3-cyclobutylpiperazin-1-yl)-1,2,4-triazin-6-yl]-5-(1H-pyrazol-4-yl)phenol], it took 33.3 nM to reach half-maximal inhibition (IC50). Still for that read-out and setting: the figure for `[2H]C([2H])([2H])Oc1cc(-c2ccc(-c3cnc(N4CCNC(C(C)(C)O)C4)nn3)c(O)c2)ncn1` (centres unmarked) [Cpd 8, 2-{3-[3-(2-hydroxypropan-2-yl)piperazin-1-yl]-1,2,4-triazin-6-yl}-5-{6-[(^2H3)methyloxy]pyrimidin-4-yl}phenol] is 8.7 nM. For `COc1cc(-c2ccc(-c3cnc(N4C[C@@H](C(C)C)N[C@@H](C)C4)nn3)c(O)c2)ncn1` [Cpd 227, 5-(6-methoxypyrimidin-4-yl)-2-{3-[(3S,5R)-3-methyl-5-(propan-2-yl)piperazin-1-yl]-1,2,4-triazin-6-yl}phenol], it took 37.3 nM to reach half-maximal inhibition (IC50). Compound `CC(C)C1CN(c2ncc(-c3ccc(-c4cc(F)c5nn(C)cc5c4)cc3O)nn2)CCN1` (centres unmarked) [Cpd 71, 5-(7-fluoro-2-methyl-2H-indazol-5-yl)-2-{3-[3-(propan-2-yl)piperazin-1-yl]-1,2,4-triazin-6-yl}phenol] showed an IC50 of 4 nM. On the same count and under the same terms, the figure for `[2H]C([2H])([2H])n1cc(-c2ccc(-c3cnc(N4CCNC(CC)C4)nn3)c(O)c2)cn1` (centres unmarked) [Cpd 39, 2-[3-(3-ethylpiperazin-1-yl)-1,2,4-triazin-6-yl]-5-[1-(^2H3)methyl-1H-pyrazol-4-yl]phenol] is 63.7 nM.

Staying with this assay, now noted: Table 3; selected compounds from WO/2019/191229 A1, same MSD assay.
Compound `CC1CN(c2ncc(-c3ccc(-c4cn[nH]c4)cc3O)nn2)CC(C)N1` (centres unmarked) [WO/2019/191229 A1 Cpd 262, reference compound] registered an IC50 of 72.8 nM.
